Results on 14 molecules are retold here after patent publication US11965039B2, “Compstatin analogues and their medical uses” (priority 2018, dated 2024).

Starred links: 1 amine or outer side, 2 acyl side, 3 side chain; linkers in the order of their positions; H or OH if unused. Positions of bridges follow the written chain, without caps; N, C: chain ends. Non-standard residues stand in square brackets, D forms with d. Residues, ends and D or L forms follow the SMILES beside them. Groups on a side chain read outwards from the residue. *: point of attachment. Trp(1-Me) = Cn1cc(C[C@H](N)C(=O)O)c2ccccc21; C18 diacid = O=C(O)CCCCCCCCCCCCCCCCC(=O)*; C16 diacid = O=C(O)CCCCCCCCCCCCCCC(=O)*; γGlu = O=C(O)[C@H](CCC(=O)[*:2])N[*:1]; AEEA = NCCOCCOCC(=O)O; Sar = CNCC(=O)O

In one assay the test system is classical complement pathway. Put plainly: In vitro haemolysis assay (inhibition of classical complement pathway). Type of assay: cell-based, human. To be noted: human serum, sensitized sheep red blood cells; Table 3, cells printed in μM; read-out: IC50, inhibition of hemolysis. The essentials:
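Compound dilutions preincubated 15 min at room temperature with diluted human serum (titrated per batch for 70-90% maximal haemolysis), then antibody-sensitized sheep RBC (10^7/well) added for 30 min at 37 °C in Tris/casein buffer, pH 7.4. Stopped with EDTA; haemolysis read at 405 nm; IC50 by 4PL fit.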
Consider `CC[C@H](C)[C@H](NC(C)=O)C(=O)N[C@H]1CSSC[C@@H](C(=O)N[C@H](C(N)=O)[C@@H](C)O)NC(=O)[C@H](CCCNC(=N)N)NC(=O)[C@H](Cc2c[nH]cn2)NC(=O)[C@H](Cc2c[nH]cn2)NC(=O)CNC(=O)[C@H](Cc2c[nH]c3ccccc23)NC(=O)[C@H](CC(=O)O)NC(=O)[C@H](CCC(N)=O)NC(=O)[C@H](C(C)C)NC(=O)[C@H](C(C)C)NC1=O` [Ac-compstatin, reference compound], for which the IC50 (as a rule, the concentration needed to halve the response being measured) is above 5 µM.

Still in this assay, the particulars now being: human serum, sensitized sheep red blood cells; Table 3, given as upper bounds; read-out: IC50, inhibition of hemolysis.
`CC[C@H](C)[C@@H]1NC(=O)[C@@H](NC(=O)[C@H](Cc2ccccc2)NC(=O)[C@H](CCC(=O)O)NC(=O)CNC(C)=O)CSSC[C@@H](C(=O)N(C)CC(=O)N[C@@H](CCC(=O)O)C(=O)N[C@@H](C)C(N)=O)NC(=O)[C@H](CCCNC(=N)N)NC(=O)[C@H](Cc2c[nH]cn2)NC(=O)[C@H](CCC(=O)O)NC(=O)CNC(=O)[C@H](Cc2c[nH]c3ccccc23)NC(=O)[C@H](CC(=O)O)NC(=O)[C@H](CCC(N)=O)NC(=O)[C@H](Cc2cn(C)c3ccccc23)NC1=O` [Compound 87] (Ac-GEFCI[Trp(1-Me)]QDWGEHRC[Sar]EA-NH2; disulfide 4-14): the IC50 is below 0.1 µM.

Turning to `CC[C@H](C)[C@H](NC(=O)[C@H](C)NC(=O)[C@H](CO)NC(=O)CNC(=O)[C@H](CCCCNC(=O)COCCOCCNC(=O)COCCOCCNC(=O)CC[C@H](NC(=O)CCCCCCCCCCCCCCC(=O)O)C(=O)O)NC(C)=O)C(=O)N[C@H]1CSSC[C@@H](C(=O)N[C@H](C(=O)N[C@@H](CCC(=O)O)C(=O)NCC(=O)N[C@@H](CCC(=O)O)C(N)=O)[C@@H](C)O)NC(=O)[C@H](CCCNC(=N)N)NC(=O)[C@H](Cc2c[nH]cn2)NC(=O)[C@H](CCC(=O)O)NC(=O)CNC(=O)[C@H](Cc2c[nH]c3ccccc23)NC(=O)[C@H](CC(=O)O)NC(=O)[C@H](CCC(N)=O)NC(=O)[C@H](Cc2c[nH]c3ccccc23)NC(=O)[C@H]([C@@H](C)CC)NC1=O` [Compound 100] (Ac-K([AEEA-AEEA-γGlu-C16 diacid])GSAICIWQDWGEHRCTEGE-NH2; disulfide 6-16), the IC50 is below 0.5 µM.

Turning to `CC[C@H](C)[C@@H]1NC(=O)[C@@H](NC(=O)[C@H](Cc2ccccc2)NC(=O)[C@H](CCC(=O)O)NC(=O)[C@H](CO)NC(C)=O)CSSC[C@@H](C(=O)N(C)CC(=O)N[C@@H](CCC(=O)O)C(=O)N[C@@H](CCCCN)C(=O)N[C@@H](CCC(=O)NCC(=O)NCC(=O)NCC(=O)N[C@@H](CCCCNC(=O)CC[C@H](NC(=O)CNC(=O)CC[C@H](NC(=O)CCCCCCCCCCCCCCCCC(=O)O)C(=O)O)C(=O)O)C(N)=O)C(=O)O)NC(=O)[C@H](CCCNC(=N)N)NC(=O)[C@H](Cc2c[nH]cn2)NC(=O)[C@H](CCC(=O)O)NC(=O)CNC(=O)[C@H](Cc2c[nH]c3ccccc23)NC(=O)[C@H](CC(=O)O)NC(=O)[C@H](CCC(N)=O)NC(=O)[C@H](Cc2cn(C)c3ccccc23)NC1=O` [Compound 132] (Ac-SEFCI[Trp(1-Me)]QDWGEHRC[Sar]EK[γGlu]GGGK([γGlu-Gly-γGlu-C18 diacid])-NH2; disulfide 4-14), the IC50 is below 0.1 µM.

Regarding `CC[C@H](C)[C@H](NC(C)=O)C(=O)N[C@H]1CSSC[C@@H](C(=O)N[C@H](C(=O)N[C@@H](CCC(=O)O)C(=O)NCC(=O)N[C@@H](CCCCN)C(N)=O)[C@@H](C)O)NC(=O)[C@H](CCCNC(=N)N)NC(=O)[C@H](Cc2c[nH]cn2)NC(=O)[C@H](CCC(=O)O)NC(=O)CNC(=O)[C@H](Cc2c[nH]c3ccccc23)NC(=O)[C@H](CC(=O)O)NC(=O)[C@H](CCC(N)=O)NC(=O)[C@H](Cc2c[nH]c3ccccc23)NC(=O)[C@H]([C@@H](C)CC)NC1=O` [Compound 39] (Ac-ICIWQDWGEHRCTEGK-NH2; disulfide 2-12), the IC50 is below 0.1 µM.

In the case of `CC[C@H](C)[C@@H]1NC(=O)[C@@H](NC(=O)[C@H](Cc2ccc(O)cc2)NC(=O)[C@H](CCC(=O)O)NC(=O)[C@H](CO)NC(C)=O)CSSC[C@@H](C(=O)N(C)CC(=O)N[C@@H](CCC(=O)O)C(=O)NCC(=O)N[C@@H](C)C(=O)N[C@@H](CCCCNC(=O)COCCOCCNC(=O)CC[C@H](NC(=O)COCCOCCNC(=O)CNC(=O)CC[C@H](NC(=O)CCCCCCCCCCCCCCCCC(=O)O)C(=O)O)C(=O)O)C(N)=O)NC(=O)[C@H](CCCNC(=N)N)NC(=O)[C@H](Cc2c[nH]cn2)NC(=O)[C@H](CCC(=O)O)NC(=O)CNC(=O)[C@H](Cc2c[nH]c3ccccc23)NC(=O)[C@H](CCC(=O)O)NC(=O)[C@H](CCC(N)=O)NC(=O)[C@H](Cc2cn(C)c3ccccc23)NC1=O` [Compound 122] (Ac-SEYCI[Trp(1-Me)]QEWGEHRC[Sar]EGAK([AEEA-γGlu-AEEA-Gly-γGlu-C18 diacid])-NH2; disulfide 4-14), the IC50 was below 0.5 µM.

With `CC[C@H](C)[C@H](NC(=O)[C@H](C)NC(=O)[C@H](CO)NC(=O)[C@H](CO)NC(=O)[C@H](CCC(=O)O)NC(=O)CCCCCCCCCCCCCCC(=O)O)C(=O)N[C@H]1CSSC[C@@H](C(=O)N[C@H](C(=O)N[C@@H](CCC(=O)O)C(=O)NCC(=O)N[C@@H](CCC(=O)O)C(N)=O)[C@@H](C)O)NC(=O)[C@H](CCCNC(=N)N)NC(=O)[C@H](Cc2c[nH]cn2)NC(=O)[C@H](CCC(=O)O)NC(=O)CNC(=O)[C@H](Cc2c[nH]c3ccccc23)NC(=O)[C@H](CC(=O)O)NC(=O)[C@H](CCC(N)=O)NC(=O)[C@H](Cc2c[nH]c3ccccc23)NC(=O)[C@H]([C@@H](C)CC)NC1=O` [Compound 99] ({C16 diacid}-ESSAICIWQDWGEHRCTEGE-NH2; disulfide 6-16), the IC50 was below 0.25 µM.

For the molecule `CC[C@H](C)[C@@H]1NC(=O)[C@@H](NC(=O)[C@H](Cc2ccccc2)NC(=O)[C@H](CCC(=O)O)NC(=O)[C@H](CO)NC(C)=O)CSSC[C@@H](C(=O)N[C@H](C(=O)N[C@@H](CCC(=O)O)C(=O)NCC(=O)N[C@@H](CCC(=O)O)C(=O)NCCOCCOCC(=O)N[C@@H](CCC(=O)O)C(=O)N[C@@H](CO)C(=O)N[C@@H](CCCCNC(=O)CC[C@H](NC(=O)CCCCCCCCCCCCCCCCC(=O)O)C(=O)O)C(N)=O)[C@@H](C)O)NC(=O)[C@H](CCCNC(=N)N)NC(=O)[C@H](Cc2c[nH]cn2)NC(=O)[C@H](CCC(=O)O)NC(=O)CNC(=O)[C@H](Cc2c[nH]c3ccccc23)NC(=O)[C@H](CC(=O)O)NC(=O)[C@H](CCC(N)=O)NC(=O)[C@H](Cc2cn(C)c3ccccc23)NC1=O` [Compound 142] (Ac-SEFCI[Trp(1-Me)]QDWGEHRCTEGE[AEEA]ESK([γGlu-C18 diacid])-NH2; disulfide 4-14), the IC50 was below 0.1 µM.

As to `CC[C@H](C)[C@@H]1NC(=O)[C@@H](NC(=O)[C@@H](NC(=O)[C@H](CCC(=O)O)NC(=O)CNC(=O)[C@H](CCC(=O)O)NC(C)=O)[C@@H](C)CC)CSSC[C@@H](C(=O)N[C@@H](CCC(=O)O)C(=O)NCC(=O)N[C@@H](CCC(=O)O)C(N)=O)NC(=O)[C@H](CCCNC(=N)N)NC(=O)[C@H](Cc2c[nH]cn2)NC(=O)[C@H](CCC(=O)O)NC(=O)CNC(=O)[C@H](Cc2c[nH]c3ccccc23)NC(=O)[C@H](CC(=O)O)NC(=O)[C@H](CCC(N)=O)NC(=O)[C@H](Cc2c[nH]c3ccccc23)NC1=O` [Compound 35] (Ac-EGEICIWQDWGEHRCEGE-NH2; disulfide 5-15), the IC50 is below 0.5 µM.

In the case of `CC[C@H](C)[C@@H]1NC(=O)[C@@H](NC(=O)[C@H](Cc2ccc(O)cc2)NC(=O)[C@H](C)NC(=O)[C@H](CO)NC(=O)CNC(=O)[C@H](CCC(=O)O)NC(C)=O)CSSC[C@@H](C(=O)N[C@H](C(=O)N[C@@H](CCC(=O)O)C(N)=O)[C@@H](C)O)NC(=O)[C@H](CCCNC(=N)N)NC(=O)[C@H](Cc2c[nH]cn2)NC(=O)[C@H](CCC(=O)O)NC(=O)CNC(=O)[C@H](Cc2c[nH]c3ccccc23)NC(=O)[C@H](CC(=O)O)NC(=O)[C@H](CCC(N)=O)NC(=O)[C@H](Cc2cn(C)c3ccccc23)NC1=O` [Compound 59] (Ac-EGSAYCI[Trp(1-Me)]QDWGEHRCTE-NH2; disulfide 6-16), the IC50 was below 0.1 µM.

For the molecule `CC[C@H](C)[C@H](NC(C)=O)C(=O)N[C@H]1CSSC[C@@H](C(=O)N[C@H](C(N)=O)[C@@H](C)O)NC(=O)[C@H](CCCNC(=N)N)NC(=O)[C@H](Cc2c[nH]cn2)NC(=O)[C@H](CCC(=O)O)NC(=O)CNC(=O)[C@H](Cc2c[nH]c3ccccc23)NC(=O)[C@H](CCCCN)NC(=O)[C@H](CCC(N)=O)NC(=O)[C@H](Cc2c[nH]c3ccccc23)NC(=O)[C@H]([C@@H](C)CC)NC1=O` [Compound 7] (Ac-ICIWQKWGEHRCT-NH2; disulfide 2-12), the IC50 was below 1 µM.

As for `CC[C@H](C)[C@H](NC(C)=O)C(=O)N[C@H]1CSSC[C@@H](C(=O)N[C@H](C(N)=O)[C@@H](C)O)NC(=O)[C@H](CCCNC(=N)N)NC(=O)[C@H](Cc2c[nH]cn2)NC(=O)[C@H](CCCCN)NC(=O)CNC(=O)[C@H](Cc2c[nH]c3ccccc23)NC(=O)[C@H](CC(=O)O)NC(=O)[C@H](CCC(N)=O)NC(=O)[C@H](Cc2c[nH]c3ccccc23)NC(=O)[C@H]([C@@H](C)CC)NC1=O` [Compound 5] (Ac-ICIWQDWGKHRCT-NH2; disulfide 2-12), the IC50 is below 0.25 µM.

The assay is the same for the next values; noted with them: human serum, sensitized sheep red blood cells; Table 4, valine 3 vs isoleucine 3 pairs; read-out: CP hemolysis IC50.
For `CC[C@H](C)[C@H](NC(=O)[C@H](C)NC(=O)[C@H](CO)NC(=O)[C@H](CO)NC(=O)[C@H](CCC(=O)O)NC(C)=O)C(=O)N[C@H]1CSSC[C@@H](C(=O)N[C@H](C(N)=O)[C@@H](C)O)NC(=O)[C@H](CCCNC(=N)N)NC(=O)[C@H](Cc2c[nH]cn2)NC(=O)[C@H](CCC(=O)O)NC(=O)CNC(=O)[C@H](Cc2c[nH]c3ccccc23)NC(=O)[C@H](CC(=O)O)NC(=O)[C@H](CCC(N)=O)NC(=O)[C@H](Cc2c[nH]c3ccccc23)NC(=O)[C@H](C(C)C)NC1=O` [C, reference compound] (Ac-ESSAICVWQDWGEHRCT-NH2; disulfide 6-16), the IC50 is 0.3 µM.

As for `CC[C@H](C)[C@H](NC(C)=O)C(=O)N[C@H]1CSSC[C@@H](C(=O)N[C@H](C(N)=O)[C@@H](C)O)NC(=O)[C@H](CO)NC(=O)[C@H](Cc2c[nH]cn2)NC(=O)[C@H](C)NC(=O)CNC(=O)[C@H](Cc2c[nH]c3ccccc23)NC(=O)[C@H](CC(=O)O)NC(=O)[C@H](CCC(N)=O)NC(=O)[C@H](Cc2c[nH]c3ccccc23)NC(=O)[C@H](C(C)C)NC1=O` [E, reference compound] (Ac-ICVWQDWGAHSCT-NH2; disulfide 2-12), the half-inhibitory concentration (IC50) was above 1 µM.
